{"source": "paper PMC10175918", "about": "(Communications Biology, 2023)", "test_in_all_cases": "TGFα-shedding assay-based GPCR screening with chimeric Gα subunit proteins", "format_in_all_cases": "cell-based", "key": {"348 GPCRs [1]": {"target": "T1, 348 GPCRs (Homo sapiens, UniProt P28222)", "T1 construct": "expressed in transfected cells; host or cells: HEK293A", "T1 sequence (P28222 whole entry)": "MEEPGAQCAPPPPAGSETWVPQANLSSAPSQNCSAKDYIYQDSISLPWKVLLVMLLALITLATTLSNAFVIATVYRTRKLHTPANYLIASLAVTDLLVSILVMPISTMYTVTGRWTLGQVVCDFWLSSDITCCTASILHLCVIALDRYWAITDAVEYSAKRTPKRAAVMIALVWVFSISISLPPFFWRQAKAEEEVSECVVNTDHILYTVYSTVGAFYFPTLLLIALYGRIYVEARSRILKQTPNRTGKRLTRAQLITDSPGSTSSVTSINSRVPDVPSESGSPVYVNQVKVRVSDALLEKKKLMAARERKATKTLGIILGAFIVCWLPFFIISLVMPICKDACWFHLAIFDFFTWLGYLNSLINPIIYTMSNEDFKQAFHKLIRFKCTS", "details": "10µM, Favipiravir 100μM"}, "348 GPCRs [2]": {"target": "T2, 348 GPCRs (Homo sapiens, UniProt Q13255)", "T2 construct": "expressed in transfected cells; host or cells: HEK293A", "T2 sequence (Q13255 19-1194)": "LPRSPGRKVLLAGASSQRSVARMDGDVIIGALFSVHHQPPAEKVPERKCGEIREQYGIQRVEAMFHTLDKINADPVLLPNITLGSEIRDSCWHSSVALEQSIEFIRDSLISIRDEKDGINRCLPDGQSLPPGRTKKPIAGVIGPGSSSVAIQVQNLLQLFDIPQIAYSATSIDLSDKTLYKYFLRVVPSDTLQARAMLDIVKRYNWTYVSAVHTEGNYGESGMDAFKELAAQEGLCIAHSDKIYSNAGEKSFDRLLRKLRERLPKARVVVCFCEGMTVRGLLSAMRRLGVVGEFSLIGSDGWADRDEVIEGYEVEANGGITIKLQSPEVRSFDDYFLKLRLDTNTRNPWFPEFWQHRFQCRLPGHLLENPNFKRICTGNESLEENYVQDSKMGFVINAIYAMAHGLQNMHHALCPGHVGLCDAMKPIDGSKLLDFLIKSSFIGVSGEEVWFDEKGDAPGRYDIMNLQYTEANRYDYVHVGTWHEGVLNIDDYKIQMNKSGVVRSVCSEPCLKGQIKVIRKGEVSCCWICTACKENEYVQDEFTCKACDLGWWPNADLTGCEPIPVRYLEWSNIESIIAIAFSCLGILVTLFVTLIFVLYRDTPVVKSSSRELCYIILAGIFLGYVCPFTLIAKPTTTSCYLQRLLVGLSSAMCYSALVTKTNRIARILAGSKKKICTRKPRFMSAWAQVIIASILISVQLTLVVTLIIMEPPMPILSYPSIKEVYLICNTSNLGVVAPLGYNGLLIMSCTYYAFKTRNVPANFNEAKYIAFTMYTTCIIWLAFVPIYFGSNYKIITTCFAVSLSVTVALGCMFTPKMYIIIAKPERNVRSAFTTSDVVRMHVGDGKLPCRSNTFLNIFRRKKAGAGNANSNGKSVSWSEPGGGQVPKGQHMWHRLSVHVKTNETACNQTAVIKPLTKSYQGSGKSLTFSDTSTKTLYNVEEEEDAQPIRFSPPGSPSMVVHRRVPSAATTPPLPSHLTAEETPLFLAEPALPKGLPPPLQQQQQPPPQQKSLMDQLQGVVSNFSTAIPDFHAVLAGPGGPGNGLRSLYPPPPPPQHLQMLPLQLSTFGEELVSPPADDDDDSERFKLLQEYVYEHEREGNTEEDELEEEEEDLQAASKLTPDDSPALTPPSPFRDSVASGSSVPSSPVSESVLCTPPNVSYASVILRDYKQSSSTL", "details": "10µM, Favipiravir 100μM"}, "348 GPCRs [3]": {"target": "T3, 348 GPCRs (Homo sapiens, UniProt Q15761)", "T3 construct": "expressed in transfected cells; host or cells: HEK293A", "T3 sequence (Q15761 1-445)": "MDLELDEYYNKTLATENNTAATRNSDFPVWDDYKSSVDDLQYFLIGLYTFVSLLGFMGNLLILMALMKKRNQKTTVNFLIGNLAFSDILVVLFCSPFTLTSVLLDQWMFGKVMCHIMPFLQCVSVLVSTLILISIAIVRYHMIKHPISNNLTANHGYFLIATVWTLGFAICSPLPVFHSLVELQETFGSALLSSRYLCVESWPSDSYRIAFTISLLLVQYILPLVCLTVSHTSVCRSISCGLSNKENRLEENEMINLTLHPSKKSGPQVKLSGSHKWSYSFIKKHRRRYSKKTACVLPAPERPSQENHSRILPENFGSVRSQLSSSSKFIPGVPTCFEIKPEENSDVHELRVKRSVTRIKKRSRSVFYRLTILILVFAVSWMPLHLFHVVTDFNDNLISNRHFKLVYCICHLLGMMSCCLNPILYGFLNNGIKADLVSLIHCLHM", "details": "10µM, Favipiravir 100μM"}, "348 GPCRs [4]": {"target": "T4, 348 GPCRs (Homo sapiens, UniProt Q8TDS7)", "T4 construct": "expressed in transfected cells; host or cells: HEK293A", "T4 sequence (Q8TDS7 whole entry)": "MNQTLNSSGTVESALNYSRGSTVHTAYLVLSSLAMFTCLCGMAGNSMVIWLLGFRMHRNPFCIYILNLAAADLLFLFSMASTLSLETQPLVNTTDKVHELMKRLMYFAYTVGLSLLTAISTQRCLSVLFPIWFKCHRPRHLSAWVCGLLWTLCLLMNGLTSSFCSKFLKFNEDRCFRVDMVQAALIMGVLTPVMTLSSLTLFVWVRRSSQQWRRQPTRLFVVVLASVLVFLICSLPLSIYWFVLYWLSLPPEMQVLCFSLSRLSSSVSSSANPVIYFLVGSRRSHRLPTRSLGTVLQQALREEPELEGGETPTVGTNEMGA", "details": "10µM, Favipiravir 100μM"}, "348 GPCRs [5]": {"target": "T5, 348 GPCRs (Homo sapiens, UniProt P41587)", "T5 construct": "expressed in transfected cells; host or cells: HEK293A", "T5 sequence (P41587 24-438)": "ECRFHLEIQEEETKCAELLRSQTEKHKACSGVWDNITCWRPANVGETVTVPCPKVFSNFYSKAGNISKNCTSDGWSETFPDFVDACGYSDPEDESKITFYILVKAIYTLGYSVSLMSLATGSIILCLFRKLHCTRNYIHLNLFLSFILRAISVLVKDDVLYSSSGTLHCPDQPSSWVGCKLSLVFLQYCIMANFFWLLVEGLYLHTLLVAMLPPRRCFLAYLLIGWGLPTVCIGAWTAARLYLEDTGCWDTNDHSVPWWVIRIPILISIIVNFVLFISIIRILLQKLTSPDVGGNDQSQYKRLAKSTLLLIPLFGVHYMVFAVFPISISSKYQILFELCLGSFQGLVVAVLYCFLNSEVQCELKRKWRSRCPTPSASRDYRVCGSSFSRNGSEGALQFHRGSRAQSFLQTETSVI"}, "348 GPCRs [6]": {"target": "T6, 348 GPCRs (Homo sapiens, UniProt P32241)", "T6 construct": "expressed in transfected cells; host or cells: HEK293A", "T6 sequence (P32241 31-457)": "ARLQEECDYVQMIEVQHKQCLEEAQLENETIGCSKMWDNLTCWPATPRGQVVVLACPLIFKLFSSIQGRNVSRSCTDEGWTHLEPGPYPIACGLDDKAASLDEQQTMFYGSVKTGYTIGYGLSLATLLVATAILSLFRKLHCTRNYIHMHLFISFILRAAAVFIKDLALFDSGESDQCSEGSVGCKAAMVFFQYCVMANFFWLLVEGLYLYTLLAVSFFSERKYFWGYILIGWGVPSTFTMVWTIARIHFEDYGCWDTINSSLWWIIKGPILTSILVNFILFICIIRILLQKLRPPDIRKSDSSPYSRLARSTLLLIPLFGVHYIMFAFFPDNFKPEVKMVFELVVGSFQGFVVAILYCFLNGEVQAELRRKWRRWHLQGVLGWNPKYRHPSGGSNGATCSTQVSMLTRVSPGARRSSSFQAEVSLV"}, "348 GPCRs [7]": {"target": "T7, 348 GPCRs (Homo sapiens, UniProt Q9HBW9)", "T7 construct": "expressed in transfected cells; host or cells: HEK293A", "T7 sequence (Q9HBW9 20-690)": "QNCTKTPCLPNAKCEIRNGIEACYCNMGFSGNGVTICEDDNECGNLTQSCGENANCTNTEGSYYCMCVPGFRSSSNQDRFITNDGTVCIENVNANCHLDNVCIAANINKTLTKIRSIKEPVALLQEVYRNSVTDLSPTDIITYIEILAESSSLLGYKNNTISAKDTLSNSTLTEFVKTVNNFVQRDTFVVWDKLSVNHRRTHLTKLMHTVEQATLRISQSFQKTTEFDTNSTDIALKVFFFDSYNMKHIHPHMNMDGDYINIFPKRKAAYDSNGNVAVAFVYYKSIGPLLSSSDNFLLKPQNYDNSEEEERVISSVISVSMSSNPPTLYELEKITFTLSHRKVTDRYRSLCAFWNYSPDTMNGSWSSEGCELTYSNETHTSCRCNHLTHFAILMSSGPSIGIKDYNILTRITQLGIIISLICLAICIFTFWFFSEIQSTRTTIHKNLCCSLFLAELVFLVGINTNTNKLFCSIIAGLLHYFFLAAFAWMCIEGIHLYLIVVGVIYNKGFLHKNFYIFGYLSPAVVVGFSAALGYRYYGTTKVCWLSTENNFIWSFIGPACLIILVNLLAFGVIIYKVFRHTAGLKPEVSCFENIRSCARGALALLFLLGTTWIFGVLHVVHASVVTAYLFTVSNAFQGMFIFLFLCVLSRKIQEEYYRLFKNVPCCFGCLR", "details": "10µM, Favipiravir 100μM"}, "[8]": {"details": "5-HT1B (5-hydroxytryptamine receptor 1B), read-out: % GPCR activation compared to TPA"}, "[9]": {"details": "GRM1 (glutamate receptor, metabotropic 1), read-out: % GPCR activation compared to TPA"}, "[10]": {"details": "NPY5R (neuropeptide Y Receptor Y5), read-out: % GPCR activation compared to TPA"}, "[11]": {"details": "MRGPRD (MAS-related GPR, member D), read-out: % GPCR activation compared to TPA"}, "[12]": {"details": "GPCR VIPR2 (vasoactive intestinal peptide receptor 2), read-out: % GPCR activation compared to TPA"}, "[13]": {"details": "GPCR VIPR1 (vasoactive intestinal peptide receptor 1), read-out: % GPCR activation compared to TPA"}, "[14]": {"details": "ELTD1 (EGF, latrophilin and seven transmembrane domain containing 1), read-out: % GPCR activation compared to TPA"}, "[15]": {"details": "read-out: % GPCR activation compared to TPA, 5-HT1B (5-hydroxytryptamine receptor 1B)"}, "[16]": {"details": "read-out: % GPCR activation compared to TPA, GRM1 (glutamate receptor, metabotropic 1)"}, "[17]": {"details": "read-out: % GPCR activation compared to TPA, NPY5R (neuropeptide Y Receptor Y5)"}, "[18]": {"details": "read-out: % GPCR activation compared to TPA, MRGPRD (MAS-related GPR, member D)"}, "[19]": {"details": "read-out: % GPCR activation compared to TPA, GPCR VIPR2 (vasoactive intestinal peptide receptor 2)"}, "[20]": {"details": "read-out: % GPCR activation compared to TPA, GPCR VIPR1 (vasoactive intestinal peptide receptor 1)"}, "[21]": {"details": "read-out: % GPCR activation compared to TPA, ELTD1 (EGF, latrophilin and seven transmembrane domain containing 1)"}}, "note": "Where two headings read alike, the source gives them in different places.", "data": [{"smiles": "N#C[C@@]1(c2ccc3c(N)ncnn23)O[C@H](CO)[C@@H](O)[C@H]1O", "note": "[GS441524]", "values": [{"measurement": "activation at 100 µM", "setting": "348 GPCRs [1]; [8]", "result": -3.77, "unit": "%"}, {"measurement": "activation at 10 µM", "setting": "348 GPCRs [2]; [9]", "result": -0.549, "unit": "%"}, {"measurement": "activation at 100 µM", "setting": "348 GPCRs [3]; [10]", "result": 0.212, "unit": "%"}, {"measurement": "activation at 100 µM", "setting": "348 GPCRs [4]; [11]", "result": -4.53, "unit": "%"}, {"measurement": "activation at 10 µM", "setting": "348 GPCRs [5]; [12]", "result": -0.864, "unit": "%"}, {"measurement": "activation at 10 µM", "setting": "348 GPCRs [6]; [13]", "result": -2.1, "unit": "%"}, {"measurement": "activation at 100 µM", "setting": "348 GPCRs [7]; [14]", "result": -0.971, "unit": "%"}]}, {"smiles": "CCC(CC)COC(=O)[C@H](C)N[P@](=O)(OC[C@H]1O[C@@](C#N)(c2ccc3c(N)ncnn23)[C@H](O)[C@@H]1O)Oc1ccccc1", "note": "[remdesivir]", "values": [{"measurement": "activation at 100 µM", "setting": "348 GPCRs [1]; [15]", "result": -0.255, "unit": "%"}, {"measurement": "activation at 10 µM", "setting": "348 GPCRs [2]; [16]", "result": -0.568, "unit": "%"}, {"measurement": "activation at 100 µM", "setting": "348 GPCRs [3]; [17]", "result": 0.934, "unit": "%"}, {"measurement": "activation at 100 µM", "setting": "348 GPCRs [4]; [18]", "result": 0.905, "unit": "%"}, {"measurement": "activation at 10 µM", "setting": "348 GPCRs [5]; [19]", "result": 0.502, "unit": "%"}, {"measurement": "activation at 10 µM", "setting": "348 GPCRs [6]; [20]", "result": -1.85, "unit": "%"}, {"measurement": "activation at 100 µM", "setting": "348 GPCRs [7]; [21]", "result": 0.0637, "unit": "%"}]}, {"smiles": "CC(C)OC(=O)[C@H](C)N[P@](=O)(OC[C@H]1O[C@@H](n2ccc(=O)[nH]c2=O)[C@](C)(F)[C@@H]1O)Oc1ccccc1", "note": "[sofosbuvir]", "values": [{"measurement": "activation at 100 µM", "setting": "348 GPCRs [1]; [15]", "result": -1, "unit": "%"}, {"measurement": "activation at 10 µM", "setting": "348 GPCRs [2]; [16]", "result": 0.735, "unit": "%"}, {"measurement": "activation at 100 µM", "setting": "348 GPCRs [3]; [17]", "result": -4.22, "unit": "%"}, {"measurement": "activation at 100 µM", "setting": "348 GPCRs [4]; [18]", "result": 4.12, "unit": "%"}, {"measurement": "activation at 10 µM", "setting": "348 GPCRs [5]; [19]", "result": 1.3, "unit": "%"}, {"measurement": "activation at 10 µM", "setting": "348 GPCRs [6]; [20]", "result": 0.0833, "unit": "%"}, {"measurement": "activation at 100 µM", "setting": "348 GPCRs [7]; [21]", "result": 0.08, "unit": "%"}]}, {"smiles": "NC(=O)c1nc(F)cnc1O", "note": "[favipiravir, 6-fluoro-3-hydroxy-2-pyrazinecarboxamide]", "values": [{"measurement": "activation at 100 µM", "setting": "348 GPCRs [1]; [8]", "result": -3.2, "unit": "%"}, {"measurement": "activation at 10 µM", "setting": "348 GPCRs [2]; [9]", "result": -0.946, "unit": "%"}, {"measurement": "activation at 100 µM", "setting": "348 GPCRs [3]; [10]", "result": -1.82, "unit": "%"}, {"measurement": "activation at 100 µM", "setting": "348 GPCRs [4]; [11]", "result": -0.473, "unit": "%"}, {"measurement": "activation at 100 µM", "setting": "348 GPCRs [5]; GPCR VIPR2 (vasoactive intestinal peptide receptor 2), 100μM, read-out: % GPCR activation compared to TPA", "result": -0.699, "unit": "%"}, {"measurement": "activation at 100 µM", "setting": "348 GPCRs [6]; GPCR VIPR1 (vasoactive intestinal peptide receptor 1), 100μM, read-out: % GPCR activation compared to TPA", "result": -0.983, "unit": "%"}, {"measurement": "activation at 100 µM", "setting": "348 GPCRs [7]; [14]", "result": -0.0903, "unit": "%"}]}, {"smiles": "CC(C)C(=O)OC[C@H]1O[C@@H](n2ccc(NO)nc2=O)[C@H](O)[C@@H]1O", "note": "[molnupiravir]", "values": [{"measurement": "activation at 100 µM", "setting": "348 GPCRs [1]; [8]", "result": -0.835, "unit": "%"}, {"measurement": "activation at 10 µM", "setting": "348 GPCRs [2]; [9]", "result": -0.761, "unit": "%"}, {"measurement": "activation at 100 µM", "setting": "348 GPCRs [3]; [10]", "result": -5.02, "unit": "%"}, {"measurement": "activation at 100 µM", "setting": "348 GPCRs [4]; [11]", "result": -3.12, "unit": "%"}, {"measurement": "activation at 10 µM", "setting": "348 GPCRs [5]; [12]", "result": -0.156, "unit": "%"}, {"measurement": "activation at 10 µM", "setting": "348 GPCRs [6]; [13]", "result": -0.522, "unit": "%"}, {"measurement": "activation at 100 µM", "setting": "348 GPCRs [7]; [14]", "result": -0.0765, "unit": "%"}]}]}
